Test results as given in US20070123492A1, “Analogs of lysophosphatidic acid and methods of making and using thereof” (priority 2003, published 2007).

Tests used:
[1] = tested on: platelets; experiment: Platelet activation by fluorinated LPA analogues; format: cell-based; details: preliminary results
[2] = tested on: (18:1) LPA pain response; experiment: (18:1) LPA pain response; format: in vivo; details: preliminary results
[3] = biological target: T1, LPA1 (Homo sapiens, UniProt Q92633); experiment: Agonist/antagonist activity in insect cells expressing LPA1; format: cell-based
T1 construct: expressed in transfected cells; host or cells: insect cells

[4] = biological target: T2, LPA2 (Homo sapiens, UniProt Q9HBW0); experiment: Agonist/antagonist activity in insect cells expressing LPA2; format: cell-based
T2 construct: expressed in transfected cells; host or cells: insect cells

[5] = biological target: T3, LPA3 (Homo sapiens, UniProt Q9UBY5); experiment: Agonist/antagonist activity in insect cells expressing LPA3; format: cell-based; design: expressed in transfected cells; host or cells: insect cells
T3 sequence (Q9UBY5 1-353): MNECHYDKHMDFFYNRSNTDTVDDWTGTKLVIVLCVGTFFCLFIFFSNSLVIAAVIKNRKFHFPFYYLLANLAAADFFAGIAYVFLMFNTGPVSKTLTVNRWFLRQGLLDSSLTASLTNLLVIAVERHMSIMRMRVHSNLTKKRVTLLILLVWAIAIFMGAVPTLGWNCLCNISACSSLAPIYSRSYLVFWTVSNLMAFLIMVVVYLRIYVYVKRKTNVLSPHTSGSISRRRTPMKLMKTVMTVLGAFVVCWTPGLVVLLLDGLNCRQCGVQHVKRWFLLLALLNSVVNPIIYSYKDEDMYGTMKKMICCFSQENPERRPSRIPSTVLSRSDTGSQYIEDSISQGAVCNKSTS

[6] = biological target: T3, LPA3; experiment: Potency on the LPA3 receptor; format: cell-based; details: preliminary data
[7] = biological target: Edg7/LPA3 (Homo sapiens, UniProt Q9UBY5); details: Edg7/LPA3 as compared to Edg2/LPA1 or Edg4/LPA2; cited from earlier work
[8] = tested on: LPA receptor; details: Xenopus oocytes; cited from earlier work

T2 sequence (Q9HBW0 whole entry, species assumed): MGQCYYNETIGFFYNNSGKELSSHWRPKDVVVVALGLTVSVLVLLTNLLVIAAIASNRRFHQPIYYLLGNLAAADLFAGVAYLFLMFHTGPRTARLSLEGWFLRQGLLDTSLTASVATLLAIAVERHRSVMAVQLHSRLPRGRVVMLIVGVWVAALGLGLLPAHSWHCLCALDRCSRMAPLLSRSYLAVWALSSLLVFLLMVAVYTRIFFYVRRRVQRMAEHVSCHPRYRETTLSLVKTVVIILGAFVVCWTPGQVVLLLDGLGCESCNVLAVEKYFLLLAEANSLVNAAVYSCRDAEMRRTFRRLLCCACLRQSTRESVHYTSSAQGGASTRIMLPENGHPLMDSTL
T1 sequence (Q92633 whole entry, species assumed): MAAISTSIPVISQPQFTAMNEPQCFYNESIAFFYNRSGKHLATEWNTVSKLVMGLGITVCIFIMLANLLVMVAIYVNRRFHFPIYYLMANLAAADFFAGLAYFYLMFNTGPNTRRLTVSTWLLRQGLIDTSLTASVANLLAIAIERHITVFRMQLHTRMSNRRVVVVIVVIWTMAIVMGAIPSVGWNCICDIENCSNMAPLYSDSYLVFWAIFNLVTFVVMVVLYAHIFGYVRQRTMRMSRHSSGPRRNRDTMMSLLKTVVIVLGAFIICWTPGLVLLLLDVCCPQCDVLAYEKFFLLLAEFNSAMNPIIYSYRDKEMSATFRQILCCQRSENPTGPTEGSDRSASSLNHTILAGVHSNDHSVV

With `CCCCCCCC/C=C\CCCCCCCC(=O)O[C@H](CF)COP(=O)(O)O` [Compound 1a, 1-Phospho-2(S)-(oleoyl)-3-fluorine-propane-1,2-diol] the “ability to activate platelets” value [1] was “able to activate platelets”, the “agonism of the (18:1) LPA pain response” value [2] was “partial agonists” and the “agonist or antagonist activity” value [3] was “failed to show either significant agonist or antagonist activity”. For the same compound, the “agonist or antagonist activity” value [4] was “failed to show either significant agonist or antagonist activity” and the “agonist or antagonist activity” value [5] was “failed to show either significant agonist or antagonist activity”.

With `CCCCCCCCCCCCCCCC(=O)O[C@H](CF)COP(=O)(O)O` [Compound 1b, 1-Phospho-2(S)-(palmitoyl)-3-fluorine-propane-1,2-diol] the “ability to activate platelets” value [1] was “able to activate platelets”, the “agonism of the (18:1) LPA pain response” value [2] was “partial agonists” and the “agonist or antagonist activity” value [3] was “failed to show either significant agonist or antagonist activity”. For the same compound, the “agonist or antagonist activity” value [4] was “failed to show either significant agonist or antagonist activity” and the “agonist or antagonist activity” value [5] was “failed to show either significant agonist or antagonist activity”.

For `CCCCCCCC/C=C\CCCCCCCC(=O)O[C@H](CF)COP(=O)(O)O` [Compound 1c, 1-Phospho-2(S)-(oleoyl)-3-fluorine-propane-1,2-diol], the “potency on LPA3 relative to 1a (R)” value ([6]; relative to 1a (R)) was “approximately 100 fold” and the “potency relative to natural 18:1 LPA on the LPA3 receptor” value [6] was “somewhat more potent”.

For `CCCCCCCC/C=C\CCCCCCCC(=O)OC[C@@H](COP(O)(O)=S)OC` [OMPT], the receptor subtype selectivity [7] is given as “preferred selectivity for Edg7/LPA3”.

In the case of `CCCCCCCCCCCCCCCC(=O)NC(COP(=O)(O)O)C(=O)O` (centres unmarked) [compound 33], the “antagonism of LPA receptor function” value [8] is listed as “potent competitive antagonists”.

In the case of `CCCCCCCCCCCCCCCC(=O)NC(Cc1ccc(OP(=O)(O)O)cc1)C(=O)O` (centres unmarked) [compound 34], the “antagonism of LPA receptor function” value [8] is listed as “potent competitive antagonists”.

For “[1-Fluoro-3(S)-hydroxyl-4-(oleoyloxy)butyl]phosphonate [Compound 3aa]”, the “potency on LPA3 relative to 3ab (R)” value ([6]; relative to 3ab (R)) was “approximately 100 fold” and the “potency relative to natural 18:1 LPA on the LPA3 receptor” value [6] was 1000 fold.
